According to patent US7858637B2, “Administration of TLR7 ligands and prodrugs thereof for treatment of infection by hepatitis C virus” (priority 2003, dated 2010):
Structures can show the parent of a compound that is named as a salt. Where two headings read alike, the source gives them in different places.

Columns and labels:
[1] = tested on: human peripheral blood mononuclear cells (PBMC); assay: PBMC assay of interferon alpha release (masking); assay type: cell-based; conditions: Homo sapiens, PBMC, read-out: Amount of INFa relative to that induced by isatoribine at 100 μM
Experimental: A typical experiment would use human peripheral blood mononuclear cells (PBMC) isolated from a healthy donor and placed in replicate cell culture wells; typically, 2×10^6 to 5×10^6 cells are placed in each well. The PBMC are incubated in the absence of test compounds at 37° C. in a humidified atmosphere containing 5% CO2 for 24 hours to allow stabilization to the culture conditions, and then 100 micromolar isatoribine, the TLR7 ligand and a corresponding TLR7 ligand prodrug are added to separate wells containing PBMC from the same donor; untreated controls are included. The concentrations of TLR7 ligand and TLR7 ligand prodrug may be varied to suit the particular experiment, and the PBMC cultures are then incubated at 37° C. in a humidified atmosphere containing 5% CO2 for a period of time ranging from two hours to 48 hours. Samples of cell culture supernate media are taken during the incubation. These are assayed for cytokine production by ELISA. Additionally the amount of TLR7 ligand and TLR7 ligand prodrug remaining at the end of the incubation may be assayed by LC-MS. Cytokine production is calculated relative to production in the isatoribine control, following subtraction of the cytokine production in untreated controls.
Thus, if the TLR7 ligand generates more interferon alpha (a conveniently measured cytokine) than does the corresponding TLR7 ligand prodrug after a similar duration of exposure and concentration, the TLR7 ligand prodrug may be deemed a “masked” TLR7 ligand prodrug.

[2] = target: T1, human TLR7 (Homo sapiens, UniProt Q9NYK1); assay: HEK293-hTLR7 NF-kB luciferase reporter (C23) assay; conditions: read-out: mean fold induction of luciferase activity compared to the no drug control
T1 sequence (Q9NYK1 27-1049): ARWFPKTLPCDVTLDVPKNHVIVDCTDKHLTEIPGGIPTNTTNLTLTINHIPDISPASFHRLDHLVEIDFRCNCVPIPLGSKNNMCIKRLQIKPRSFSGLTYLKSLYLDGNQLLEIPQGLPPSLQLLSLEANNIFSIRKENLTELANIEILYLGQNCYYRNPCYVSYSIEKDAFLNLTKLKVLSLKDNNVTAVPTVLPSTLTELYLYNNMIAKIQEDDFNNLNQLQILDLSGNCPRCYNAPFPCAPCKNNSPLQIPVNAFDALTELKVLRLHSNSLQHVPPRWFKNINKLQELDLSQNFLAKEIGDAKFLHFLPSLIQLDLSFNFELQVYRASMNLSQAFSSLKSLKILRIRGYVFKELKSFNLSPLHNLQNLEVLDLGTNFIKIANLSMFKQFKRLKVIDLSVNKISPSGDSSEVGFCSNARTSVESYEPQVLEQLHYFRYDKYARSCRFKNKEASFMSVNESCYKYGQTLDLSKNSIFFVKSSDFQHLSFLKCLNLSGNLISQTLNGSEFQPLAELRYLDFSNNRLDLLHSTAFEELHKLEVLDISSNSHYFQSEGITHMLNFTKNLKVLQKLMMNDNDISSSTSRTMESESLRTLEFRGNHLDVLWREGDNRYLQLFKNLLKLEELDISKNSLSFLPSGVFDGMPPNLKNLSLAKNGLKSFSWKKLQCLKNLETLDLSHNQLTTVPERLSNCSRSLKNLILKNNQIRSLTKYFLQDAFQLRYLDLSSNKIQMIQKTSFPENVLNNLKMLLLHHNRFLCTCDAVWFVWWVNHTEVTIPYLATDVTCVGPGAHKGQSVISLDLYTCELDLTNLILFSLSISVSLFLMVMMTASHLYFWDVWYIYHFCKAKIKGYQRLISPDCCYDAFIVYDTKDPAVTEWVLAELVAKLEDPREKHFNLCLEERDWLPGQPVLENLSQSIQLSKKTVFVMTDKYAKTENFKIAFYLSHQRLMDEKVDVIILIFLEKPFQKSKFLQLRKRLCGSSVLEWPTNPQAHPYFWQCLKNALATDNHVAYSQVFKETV
Experimental: A stable HEK293-hTLR7 cell line was obtained from Invivogen (San Diego, Calif.), transfected with pNiFty2-Luc, an NF-kB inducible luciferase reporter plasmid (Invivogen) and (dual) stable transfectants selected. The resultant dual (hTLR7/pNiFty2-Luc) cell lines were functionally tested by response to loxoribine and isatoribine as measured by fold luciferase induction relative to a no drug control. […] See, e.g., Hemmi H. et al., Nat.
For a typical C23 assay, cells are seeded at 6×10^4 cells/well in 96 well plates and 4-24 hours later are treated with various concentrations of compound. After 2-48 hours exposure the cell monolayers are lyzed with passive lysis buffer (Promega) and the firefly luciferase assay carried out using the luciferase assay reagent (Promega) as specified by the manufacturer. Relative luciferase activities are expressed as folds of induction compared to the no drug control. A two-fold induction over background is considered a bona fide TLR7 agonist, dependent on this being a statistically significant increase.
In Table 1, isatoribine, was added to C23 cells for forty-eight hours, and the cells were then harvested and assayed for luciferase activity. Each time-point was assayed in triplicate.
Each time-point was assayed in triplicate.

[3] = tested on: HCV replicon; assay: HCV replicon-based viral bioassay with supernatants of compound-treated PBMC; assay type: cell-based, hepatitis C virus
Experimental: A quantitative assay was developed which is based on measuring the activity of the luciferase reporter gene that was integrated into an HCV replicon. By using this system, interferons from TLR7 agonist-treated PBMCs were measured and their inhibitory activity was assessed using the luciferase reporter replicon.
Human PBMCs isolated from a healthy donor were placed in replicate cell culture wells (5×10^6 cells per well). The PBMCs are incubated in the absence of test compounds at 37° C. in a humidified atmosphere containing 5% CO2 for 24 hours to allow stabilization to the culture conditions, and then the TLR7 ligand or a drug free control is added to replicate wells containing PBMCs from the same donor. The concentrations of TLR7 ligand may be varied to suit the particular experiment, and the PBMC cultures are then incubated at 37° C. in a humidified atmosphere containing 5% CO2 for eight hours. Samples of cell culture supernatant are taken at the eight hour time point (or twenty four hour time point in case of Loxoribine and its prodrugs) from TLR7 ligand treated and control wells and are assayed for interferon-alpha production by ELISA. Supernatants from compound-treated cells and a no-drug control were diluted at 1:10, 1:100, and 1:1000 in RPMI media and applied to a 96-well plate of Huh7 hepatocyte cells containing the luciferase reporter replicon. Cells were incubated for 48 hours at 37° C. in a tissue culture incubator.
After the incubation period, the 96-well plates are washed 2× with PBS and are lysed with passive lysis buffer (Promega). Plates are shaken at room temperature for 20 minutes and standard luciferase assay reagent (Promega) is added to each well by injection and the plate is read on an Lmax luminometer (Molecular Devices).
A supernatant collected from PBMC cells non-exposed to the compound and diluted as specified in the first column was used as a control (“Blank supernatant”). The PBMC cells were isolated from a single blood donor as specified.

[4] = tested on: HCV; conditions: treatment of HCV, Pockros et al., Gastroenterology 2003; cited from earlier work

With `CC(C)[C@H](N)C(=O)OC[C@H]1O[C@@H](n2c(=O)sc3c(=O)[nH]c(N)nc32)[C@H](O)[C@@H]1O` (as salt: hydrochloride) [Compound 24, 5-Amino-3-(5′-O-L-valinyl-β-D-ribofuranosyl)thiazolo[4,5-d]pyrimidine-2,7-dione Dihydrochloride] the melting point was 166 to 168 °C (dec.).
`CC(=O)OC[C@H]1O[C@@H](n2c(=O)sc3c(=O)[nH]c(N)nc32)[C@H](OC(C)=O)[C@@H]1OC(C)=O` showed a melting point of 198 to 199 °C.
In the case of `CC(=O)O[C@@H]1[C@H](OC(C)=O)[C@@H](CO)O[C@H]1n1c(=O)sc2cnc(N)nc21` [Compound 93, 5-Amino-3-(2′,3′-di-O-acetyl-β-D-ribofuranosyl)-3H-thiazolo[4,5-d]pyrimidin-2-one], the melting point is reported as 109 to 111 °C and the Emax at 100 µM ([1]; Table 9, 100 μM, 24 hours exposure, same blood donor) is reported as 0%.
For `Nc1ncc2sc(=O)n([C@@H]3O[C@H](CO)[C@@H](O)[C@H]3O)c2n1`, the melting point was 220 °C (dec.).
`COCCOc1nc(N)c2nc(O)n(Cc3ccccc3)c2n1` [Compound 29, 6-Amino-9-benzyl-2-(2-methoxy-ethoxy)-9H-purin-8-ol] gave a fold induction at 1 µM [2] of 20.8, a fold induction at 3.2 µM [2] of 37.3 and a fold induction at 10 µM [2] of 47.5. The fold induction at 32 µM [2] was 48.4, the Emax at 0.1 µM ([1]; Table 14, 0.1 μM, 24 hours exposure) was 128% and the HCV replicon inhibition ([3]; Table 8 No. 1, PBMC exposed 8 hours to 0.1 μM, a TFA salt, donor FL76418, supernatant dilution 1:10) was 100%. The HCV replicon inhibition ([3]; Table 8 No. 1, PBMC exposed 8 hours to 0.1 μM, a TFA salt, donor FL76418, supernatant dilution 1:100) was 73%, the HCV replicon inhibition ([3]; Table 8 No. 1, PBMC exposed 8 hours to 0.1 μM, a TFA salt, donor FL76418, supernatant dilution 1:1000) was 0% and the HCV replicon inhibition ([3]; Table 8 No. 2, PBMC exposed 8 hours to 0.1 μM, a TFA salt, donor FL76418, supernatant dilution 1:10) was 100%. It also gave an HCV replicon inhibition ([3]; Table 8 No. 2, PBMC exposed 8 hours to 0.1 μM, a TFA salt, donor FL76418, supernatant dilution 1:100) of 64% and an HCV replicon inhibition ([3]; Table 8 No. 2, PBMC exposed 8 hours to 0.1 μM, a TFA salt, donor FL76418, supernatant dilution 1:1000) of 9%.
In the case of `CCOCc1nc2c(N)nc3ccccc3c2n1CC(C)(C)O` [Compound 38, 1-(4-amino-2-ethoxymethyl-imidazo[4,5-c]quinolin-1-yl)-2-methyl-propan-2-ol], the “anti-HCV effect at tolerated oral doses” value [4] is listed as “failed to show anti-HCV effect”, the Emax at 100 µM ([1]; 24 h) is listed as 9% and the HCV replicon inhibition ([3]; Table 6 No. 1, PBMC exposed 8 hours to 10 μM, donor FL75287, supernatant dilution 1:10) is listed as 100%. For the same molecule, the HCV replicon inhibition ([3]; Table 6 No. 1, PBMC exposed 8 hours to 10 μM, donor FL75287, supernatant dilution 1:100) was 98%, the HCV replicon inhibition ([3]; Table 6 No. 1, PBMC exposed 8 hours to 10 μM, donor FL75287, supernatant dilution 1:1000) was 21% and the HCV replicon inhibition ([3]; Table 6 No. 2, PBMC exposed 8 hours to 10 μM, donor FL75287, supernatant dilution 1:10) was 100%. It also gave an HCV replicon inhibition ([3]; Table 6 No. 2, PBMC exposed 8 hours to 10 μM, donor FL75287, supernatant dilution 1:100) of 88% and an HCV replicon inhibition ([3]; Table 6 No. 2, PBMC exposed 8 hours to 10 μM, donor FL75287, supernatant dilution 1:1000) of 6%.
